According to patent US20230363389A1, “MAMMAL REPELLENT” (SCENT SCIENCE INTERNATIONAL INC., priority 2020, published 2023):

Legend:
birds = conditions: reported, Non-Patent Literature 5; cited from earlier work
mice = conditions: reported, Non-Patent Literature 5; cited from earlier work
C57/BL6 male mice = assay: Freezing test: innate fear (freezing) behavior of mice exposed to odor gas; type: in vivo, mouse; conditions: for freezing behavior-inducing activity (Freezing time): 10 ppm gas, 20 min observation, n = 6
Text: A 10 ppm gas was generated for 9 kinds of available odor molecules from those reported to have a repellent effect on birds by using a gas permeator (manufactured by GASTEC, PD-1B-2). Holes (4.5 cm and 12 cm high) were respectively drilled on opposite sides of a sealed test cage (17×17×18.5 cm), a tube for discharging the gas generated by the permeator was connected to the lower hole, the gas was introduced, and the higher hole allowed the air in the test cage to be released. After the air in the test cage was completely replaced by the odor gas, C57/BL6 male mice aged about 2 months to 6 months were put into the test cage (one mouse per cage), and the freezing behavior was analyzed by a freezing behavior automatic analyzer (manufactured by Actimetrics, Freeze Frame2) for 20 min. The time during which the mouse was motionless for 2 seconds or longer was measured as a freezing behavior, and the duration of freezing behavior within 20 minutes of observation time (Freezing time) was shown in %. Each experiment was performed with n = 6.
A constant concentration of the gas of the following various compounds was generated by a gas permeator (manufactured by GASTEC, PD-1B-2). When the concentration is not particularly indicated, an odor gas was generated at a concentration of 10 ppm. Holes (4.5 cm and 12 cm high) were respectively drilled on opposite sides of a sealed test cage (17×17×18.5 cm), a tube for discharging the gas generated by the permeator was connected to the lower hole, the gas was introduced, and the higher hole allowed the air in the test cage to be released. After the air in the test cage was completely replaced by the odor gas, C57/BL6 male mice aged about 2 months to 6 months were put into the test cage (one mouse per cage), and the freezing behavior was analyzed by a freezing behavior automatic analyzer (manufactured by Actimetrics, Freeze Frame2) for 20 min. The time during which the mouse was motionless for 2 seconds or longer was measured as a freezing behavior, and the duration of freezing behavior within 20 minutes of observation time (Freezing time) was shown in %. Each experiment was performed with n = 6. […]
A 10 ppm gas of thiophene and 2-acetylthiophene was generated using a gas permeator (manufactured by GASTEC, PD-1B-2). […] After the air in the test cage was completely replaced by the odor gas, C57/BL6 male mice aged about 2 months to 6 months were put into the test cage (one mouse per cage), and the freezing behavior was analyzed by a freezing behavior automatic analyzer (manufactured by Actimetrics, Freeze Frame2) for 20 min. The time during which the mouse was motionless for 2 seconds or longer was measured as a freezing behavior, and the duration of freezing behavior within 20 minutes of observation time (Freezing time) was shown in %. […]

| Structure (SMILES) | repellent activity in birds (birds) | activity to induce freezing behavior in mice (mice) | freezing behavior-inducing activity (Freezing time) (C57/BL6 male mice; Example 1, FIG. 1) | freezing behavior-inducing activity (Freezing time) (C57/BL6 male mice; Example 3, FIG. 3) | significant difference from no odor, student's t-test (C57/BL6 male mice; Example 3, freezing time versus no odor) |
| --- | --- | --- | --- | --- | --- |
| Cc1csc(C)n1 [2,4-dimethyl-thiazole] | does not show repellent activity | has an activity to induce freezing behavior |  |  |  |
| CC(=O)c1cccs1 [2-acetylthiophene] |  |  | induced a freezing behavior | very strong freezing behavior |  |
| c1ccsc1 [thiophene] |  |  |  | very low | no significant difference |
